Among the data in patent publication US20240415819A1, “MACROCYCLIC COMPOUNDS AS PROTEASOME SUBUNIT BETA TYPE-5 INHIBITORS” (Lead Discovery Center GmbH, priority 2021, published 2024) are IC50 values, retold here.

Bounds are passed on as bounds.

Assay [1] concerns the target T1, β5 subunit of the human constitutive proteasome (CPS) (Homo sapiens, UniProt P28074).
T1 construct: purchased Boston Biochem E-360
Put plainly: β5 inhibition assay, human constitutive proteasome (Suc-LLVY-AMC). In kind it is biochemical. The note with it: IC50 class, Suc-LLVY-AMC substrate. How it is done:
The enzymatic activity of the β5 subunit of the human constitutive proteasome (CPS) is analyzed. In another assay, which differs from the assay of the human constitutive proteasome only in using the human immunoproteasome (IPS) the enzymatic activity of the β5 subunit of the human immunoproteasome (IPS) is analyzed. […] Inhibition is indicated as IC50 [nM] (“-”=not measured).

A further assay deals with hPMBC. Put plainly: Chymotrypsin-like ProteasomeGlo assay in hPBMC. The note with it: Homo sapiens; read-out: Pglo hPBMC. In kind it is cell-based. A digest of the protocol:
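B cells isolated from human PBMC (buffy coats, density gradient, magnetic isolation). Cells treated with compound for 105 min at 37 °C, with staurosporine and DMSO included. Chymotrypsin-like proteasome activity read by luminescence with Suc-LLVY-Glo substrate to derive IC50.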

Another assay deals with HT-29 cells. Put plainly: CellTiter-Glo luminescent cell viability assay with HT-29 cells (72h incubation). Particulars: Homo sapiens, HT-29, HT29 cells, read-out: CTG HT29. In kind it is cell-based, human. Put shortly:
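400 cells per well in DMEM/10% FCS were dosed after 24 h and kept 72 h at 37 °C, 5% CO2. ATP-based luminescence (CellTiter-Glo) normalized to DMSO and 10 μM staurosporine controls; IC50 by dose-response fit.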
For orientation: In ATP-based viability assays light output follows the ATP content of the culture.

As to `CNCC(=O)N[C@H]1CC(=O)N2CCCC(CCOc3ccc(C)c(c3)CNC(=O)[C@H](CCc3ccccc3)NC1=O)C2` (stereo partly drawn) [Compound 129, N-((9S,12S)-5^4-methyl-8,11,14-trioxo-9-phenethyl-4-oxa-7,10-diaza-1(3,1)-piperidina-5(1,3)-benzenacyclotetradecaphane-12-yl)-2-(methylamino)acetamide], the IC50 (in assay [1]; with hPMBC; in the assay on HT-29 cells) was below 0.1 µM in each case.
For `CC(=O)N[C@H]1CC(=O)N2CCCC(CCOc3ccc(F)c(c3)CNC(=O)[C@H](CCc3ccccc3)NC1=O)C2` (stereo partly drawn) [Compound 205, N-((9S,12S)-5^4-fluoro-8,11,14-trioxo-9-phenethyl-4-oxa-7,10-diaza-1(3,1)-piperidina-5(1,3)-benzenacyclotetradecaphane-12-yl)acetamide], the IC50 (in assay [1]; with hPMBC; in the assay on HT-29 cells) was below 0.1 µM throughout.
Take `Cc1ccc2cc1CNC(=O)[C@H](CCc1ccccc1)NC(=O)[C@@H](NC(=O)C1(C)COC1)CC(=O)N1CCCC(CCO2)C1` (stereo partly drawn) [Compound 287, 3-methyl-N-((9S,12S)-5^4-methyl-8,11,14-trioxo-9-phenethyl-4-oxa-7,10-diaza-1(3,1)-piperidina-5(1,3)-benzenacyclotetradecaphane-12-yl)oxetane-3-carboxamide]: the IC50 (in assay [1]; with hPMBC; with HT-29 cells) was below 0.1 µM each time.
As for `C=CC(=O)N[C@H]1CC(=O)N2CCCC(CCOc3ccc(C)c(c3)CNC(=O)[C@H](CCc3ccccc3)NC1=O)C2` (stereo partly drawn) [Compound 181, N-((9S,12S)-5^4-methyl-8,11,14-trioxo-9-phenethyl-4-oxa-7,10-diaza-1(3,1)-piperidina-5(1,3)-benzenacyclotetradecaphane-12-yl)acrylamide], the IC50 (in assay [1]; in the assay with hPMBC; in the assay with HT-29 cells) was below 0.1 µM each time.
As to `CC(=O)N[C@H]1CCCC(=O)N2CCOC(CCOc3ccc(C)c(c3)CNC(=O)[C@H](CCc3ccccc3)NC1=O)C2` (stereo partly drawn) [Compound 186, N-((9S,12S)-5^4-methyl-8,11,16-trioxo-9-phenethyl-4-oxa-7,10-diaza-1(2,4)-morpholina-5(1,3)-benzenacyclohexadecaphane-12-yl)acetamide], the IC50 in assay [1] was below 0.1 µM; with hPMBC, 0.1 to 0.5 µM; in the assay with HT-29 cells, 0.1 to 0.5 µM.
Regarding `Cc1ccc2cc1CNC(=O)[C@H](CCc1ccccc1)NC(=O)[C@@H](NC(=O)CN1CCOCC1)CC(=O)N1CCCC(CCO2)C1` (stereo partly drawn) [Compound 88, N-((9S,12S)-5^4-methyl-8,11,14-trioxo-9-phenethyl-4-oxa-7,10-diaza-1(3,1)-piperidina-5(1,3)-benzenacyclotetradecaphane-12-yl)-2-morpholinoacetamide], the IC50 (in assay [1]; in the assay on hPMBC; in the assay on HT-29 cells) was below 0.1 µM throughout.
With `Cc1ccc2cc1CNC(=O)[C@H](CCc1ccccc1)NC(=O)[C@@H](NC(=O)C1(N)CCOC1)CC(=O)N1CCCC(CCO2)C1` (stereo partly drawn) [Compound 159, 3-amino-N-((9S,12S)-5^4-methyl-8,11,14-trioxo-9-phenethyl-4-oxa-7,10-diaza-1(3,1)-piperidina-5(1,3)-benzenacyclotetradecaphane-12-yl)tetrahydrofuran-3-carboxamide], the IC50 (in assay [1]; with hPMBC; with HT-29 cells) was below 0.1 µM throughout.
As for `Cc1ccc2cc1CNC(=O)[C@H](CCc1ccccc1)NC(=O)[C@@H](NC(=O)c1n[nH]c3ccccc13)CC(=O)N1CCCC(CCO2)C1` (stereo partly drawn) [Compound 60, N-((9S,12S)-5^4-methyl-8,11,14-trioxo-9-phenethyl-4-oxa-7,10-diaza-1(3,1)-piperidina-5(1,3)-benzenacyclotetradecaphane-12-yl)-1H-indazole-3-carboxamide], the IC50 is below 0.1 µM in assay [1], 0.1 to 0.5 µM with hPMBC and below 0.1 µM with HT-29 cells.
